Experimental data reported in patent publication US7576102B2, “Biaryl substituted nitrogen containing heterocycle inhibitors of LTA4H for treating inflammation” (deCODE genetics ehf, priority 2005, dated 2009).
Where a name gives a salt, the structure may show the parent alone.

Experiments:
human LTA4 hydrolase = target: T1, human LTA4 hydrolase (Homo sapiens, UniProt P09960); experiment: In vitro assay testing inhibitory activity against purified recombinant human LTA4 hydrolase; assay type: biochemical; details: 200 nM recombinant enzyme, 2 μM LTA4, LTB4 by LC-MS/MS; read-out: IC50(μM) (hLTA4H)
T1 construct: A human LTA4 hydrolase full-length cDNA clone (NM_000895) was purchased from OriGene Technologies; made in house; host or cells: Escherichia coli BL21-AI
T1 sequence (P09960 1-611): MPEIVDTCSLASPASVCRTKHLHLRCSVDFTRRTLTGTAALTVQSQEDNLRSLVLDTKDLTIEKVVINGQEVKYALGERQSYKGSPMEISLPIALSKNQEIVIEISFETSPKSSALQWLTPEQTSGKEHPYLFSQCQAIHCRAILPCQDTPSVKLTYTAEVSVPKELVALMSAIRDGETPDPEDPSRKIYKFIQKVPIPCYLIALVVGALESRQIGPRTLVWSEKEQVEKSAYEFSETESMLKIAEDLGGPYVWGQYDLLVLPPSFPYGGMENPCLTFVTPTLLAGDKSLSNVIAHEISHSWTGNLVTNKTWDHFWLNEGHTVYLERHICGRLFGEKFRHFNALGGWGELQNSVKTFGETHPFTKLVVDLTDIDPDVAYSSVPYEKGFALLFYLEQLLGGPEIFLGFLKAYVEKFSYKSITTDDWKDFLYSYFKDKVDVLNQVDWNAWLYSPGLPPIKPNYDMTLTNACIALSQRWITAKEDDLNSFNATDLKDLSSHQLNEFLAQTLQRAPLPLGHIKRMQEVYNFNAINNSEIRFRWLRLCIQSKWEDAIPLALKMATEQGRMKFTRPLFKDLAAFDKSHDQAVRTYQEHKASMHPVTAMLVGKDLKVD
Text: (1) In vitro Assay Testing Inhibitory Activity Against Purified Recombinant Human LTA4 Hydroase:
A human LTA4 hydrolase full-length cDNA clone (NM_000895) was purchased from OriGene Technologies (Rockville, Md.). The gene was amplified by polmerase chain reaction and transferred via pDONR201 into the bacterial expression vector pDEST17 by recombination (both plasmids from Invitrogen, Carlsbad, Calif.). The resulting construct was transformed into Escherichia coli BL21-AI (Invitrogen), and expression was induced by chemical induction with arabinose. The recombinant enzyme was purified by chromatography on a FPLC system (Amersham Biosciences, Uppsala, Sweden) using immobilized metal affinity chromatography (Ni-NTA Superflow, Qiagen, Hilden, Germany) and anion exchange chromatography (MonoQ HR 10/10, Amersham Biosciences).
The compounds of the invention were incubated in a series of dilutions with 200 nM of recombinant enzyme in assay buffer (100 mM Tris-HCl, 100 mM NaCl, 5 mg/ml fatty-acid free BSA, 10% DMSO, pH 8.0) for 10 min at room temperature to allow binding between LTA4 hydrolase and the inhibitors. LTA4 was prepared by alkaline hydrolysis of LTA4 methyl ester (Biomol, Plymouth Meeting, Pa., or Cayman Chemicals, Ann Arbor, Mich.). A solution of 10 μg of the ester was dried under a nitrogen stream and redissolved in 60 μl of a solution of 80% aceton and 20% 0.25 M NaOH. After incubation for 40 min at room temperature the resulting approximately 500 μM tock of LTA4 was kept at −80° C. for no more than a few days prior to use.
Immediately before the assay, LTA4 was diluted to a concentration of 10 μM in assay buffer (without DMSO) and added to the reaction mixture to a final concentration of 2 μM to initiate the enzyme reaction. After incubation for 120 sec at room temperature, the reaction was stopped by adding 2 volumes of chilled quenching buffer, containing acetonitrile with 1% acetic acid and 225 nM LTB4-d4 (Biomol). The samples were then kept at 4° C. over night to complete protein precipitation and centrifuged for 15 min at 1800 g. LTB4 formed was measured by LC-MS/MS using LTB4-d4 as an internal standard and an external LTB4 standard (Biomol) as reference. Briefly, the analyte was separated from LTB4 isomers formed by spontaneous hydrolysis of LTA4 using isocratic elution (modified protocol from Mueller et al. (1996), J. Biol. Chem. 271, 24345-24348) on a HPLC system (Waters, Milford, Mass.) and analyzed on a tandem quadrupole mass spectrometer (Waters). MRM transitions followed on 2 channels were 335.2>195.3 (LTB4) and 339.2>197.3 (LTB4-d4). Based on the amounts of LTB4 found at each inhibitor concentration, a dose-response curve was fitted to the data and an IC50 value was calculated.

[1] = system: LTB4 in human whole blood; experiment: Ex vivo assay testing inhibitory activity in human whole blood after stimulation with calcium ionophore (LTB4 by immunoassay); assay type: cell-based; details: 20 μM ionomycin, read-out: IC50(μM) (hWB)
Description: (2) Ex vivo Assay Testing Inhibitory Activity in Human Whole Blood After Stimulation with Calcium Ionophor: Human blood was collected in heparin-containing Vacutainer tubes. For each sample, 200 μl of blood were dispensed into a pre-warmed plate and 188 μl of RPMI-1640 medium (Invitrogen) containing 20 μg/ml Indomethacin (Sigma, St. Louis, Mo.) were added. Then 4 μl of a series of compound dilutions (in DMSO) were added, followed by a 15 min incubation at 37° C. with gentle shaking. After that, blood samples were stimulated by adding lonomycin (Calbiochem) to a final concentration of 20 μM. After another incubation at 37° C. for 30 min, samples were centrifuged for 5 min at 1800 g and 4° C. Supernatants were taken and LTB4 concentrations were determined using a commercially available enzyme-linked immunoassay (R&D Systems, Minneapolis, Minn.) according to the manufacturer's instructions. Results obtained for different concentrations of hydrolase inhibitor were then used to fit a dose-response curve and calculate an IC50 value.

[2] = system: ionophore-induced LTB4 production; details: oral administration; cited from earlier work
[3] = system: ionophore-induced LTB4 production; details: oral administration; cited from earlier work; remark: listed apart in the source
colitis symptoms = details: eight weeks of treatment; cited from earlier work

IC50 (human LTA4 hydrolase) [µM] | SMILES | further results
5 to 20 | FC(F)(F)Oc1ccc(Oc2ccc(OC3CCNCC3)cc2)cc1 [Example 9, 4-[4-(4-Trifluoromethoxy-phenoxy)-phenoxy]-piperidine hydrochloride] | 
< 5 | c1ccc(Cc2ccc(O[C@@H]3CCNC3)cc2)cc1 [Example 2, (R) 3-(4-Benzyl-phenoxy)-pyrrolidine hydrochloride salt] | IC50 [1]: < 5 µM
< 5 | c1ccc(Oc2ccc(O[C@@H]3CCNC3)cc2)cc1 [Example 11, (R)-3-(4-Phenoxy-phenoxy)-pyrrolidine hydrochloride] | 
< 5 | c1ccc(-c2ccc(Oc3ccc(OC4CCNCC4)cc3)cc2)cc1 [Example 8, 4-[4-(Biphenyl-4-yloxy)-phenoxy]-piperidine hydrochloride salt] | IC50 [1]: < 5 µM
< 5 | Clc1ccc(Oc2ccc(OC3CCNCC3)cc2)cc1 [Example 10, 4-[4-(4-Chloro-phenoxy)-phenoxy]-piperidine hydrochloride] | 
< 5 | FC(F)(F)c1ccc(Oc2ccc(OC3CCNCC3)cc2)cc1 [Example 7, 4-[4-(4-Trifluoromethyl-phenoxy)-phenoxy]-piperidine hydrochloride salt] | 
< 5 | c1ccc(Cc2ccc(O[C@H]3CCNC3)cc2)cc1 [Example 1, (S) 3-(4-Benzyl-phenoxy)-pyrrolidine hydrochloride salt] | IC50 [1]: < 5 µM
< 5 | O=C(O)CCCN1CC[C@@H](Oc2ccc(Oc3ccc(Cl)cc3)cc2)C1 [Example 14, 4-{(R)-3-[4-(4-Chloro-phenoxy)-phenoxy]-pyrrolidin-1-yl}-butyric acid HCl] | 
 | CN(CCCOc1ccc(Cc2ccccc2)cc1)CCC(=O)O.Cl [SC57461] | inhibition of ionophore-induced LTB4 production in mouse blood ex vivo [2]: inhibition of ionophore-induced LTB4 production; inhibition of ionophore-induced LTB4 production in rat peritoneum in vivo [3]: inhibition of ionophore-induced LTB4 production; colitis symptoms in a primate model (colitis symptoms): significantly improved colitis symptoms
< 5 | O=C(O)CCCN1CC[C@@H](Oc2ccc(Cc3ccccc3)cc2)C1 [Example 4, 4-[(R)-3-(4-Benzyl-phenoxy)-pyrrolidin-1-yl]-butyric acid hydrochloride salt] | 
< 5 | c1ccc(Oc2ccc(OC3CCNCC3)cc2)cc1 [Example 3, 4-(4-Phenoxy-phenoxy)-piperidine hydrochloride salt] | IC50 [1]: < 5 µM
< 5 | O=C(O)CCN1CCC(Oc2ccc(Oc3ccccc3)cc2)CC1 [Example 5, 3-[4-(4-Phenoxy-phenoxy)-piperidin-1-yl]-propionic acid] | 
< 5 | NC(=O)CCCN1CC[C@@H](Oc2ccc(Oc3ccccc3)cc2)C1 [Example 13, 4-[(R)-3-(4-Phenoxy-phenoxy)-pyrrolidin-1-yl]-butyramide] | 
< 5 | O=C(O)CCCN1CCC(Oc2ccc(Oc3ccccc3)cc2)CC1 [Example 6, 4-[4-(4-Phenoxy-phenoxy)-piperidin-1-yl]-butyric acid hydrochloride salt] | 
< 5 | O=C(O)CCCN1CC[C@@H](Oc2ccc(Oc3ccccc3)cc2)C1 [Example 12, 4-[(R)-3-(4-Phenoxy-phenoxy)-pyrrolidin-1-yl]-butyric acid hydrogen chloride] | 
